Measurements published in patent US9708336B2, “Metallo-beta-lactamase inhibitors” (priority 2014, dated 2017).
Read-outs that look alike come from different tables or passages of the source.

Legend:
IMP-1 = IMP-1 (Serratia marcescens, UniProt P52699); experiment: biochemical; format: biochemical; details: read-out: IMP-1 IC50
NDM-1 = NDM-1 (Klebsiella pneumoniae, UniProt C7C422); experiment: biochemical; format: biochemical; details: read-out: NDM-1 IC50
VIM-1 = VIM-1 (Pseudomonas aeruginosa (strain ATCC 15692 / DSM 22644 / CIP 104116 / JCM 14847 / LMG 12228 / 1C / PRS 101 / PAO1), UniProt A0A0F7KYQ8); experiment: Enzyme activity: determination of IC50, fluorescence assay with CCF2-FA substrate (VIM-1); format: biochemical
[1] = test system: Escherichia coli expressing NDM-1 (CLB30016); experiment: Antibiotic potentiation activity: synergistic concentration (MITC95) with imipenem, OD600 growth; format: cell-based; details: for Escherichia coli expressing NDM-1 (CLB 30016) MITC95: concentration giving 95% inhibition of bacterial growth
Summary of the method: (§1)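 Spectrophotometric growth readings were taken following 22–24 h at 35 °C. Before that, organisms in 1.1× CAMHB were mixed with imipenem, used at 4 μg/ml in assay, and test compound.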

[2] = test system: Serratia marcescens expressing IMP-1 (CL5741); experiment: as above; format: cell-based; details: for Serratia marcescens expressing IMP-1 (CL5741) MITC95: concentration giving 95% inhibition of bacterial growth
Summary of the method: as §1

[3] = test system: Klebsiella pneumoniae expressing VIM-1 (IHMA599644); experiment: as above; format: cell-based; details: for Klebsiella pneumoniae expressing VIM-1 (IHMA 599644) MITC95: concentration giving 95% inhibition of bacterial growth
Summary of the method: as §1

[4] = fluorescence assay with CCF2-FA substrate
[5] = fluorescence assay with CCF2-FA substrate, read-out: VIM-1 IC50
[6] = CLB30016 (NDM-1), 95% inhibition of bacterial growth
[7] = CL5741 (IMP-1), 95% inhibition of bacterial growth
[8] = IHMA599644 (VIM-1), 95% inhibition of bacterial growth
[9] = IMP-1 enzyme, CCF2-FA substrate
[10] = NDM-1 enzyme, CCF2-FA substrate
[11] = (CLB30016, NDM-1), 95% growth inhibition
[12] = Serratia marcescens CL5741 (IMP-1), 95% growth inhibition
[13] = Klebsiella pneumoniae IHMA599644 (VIM-1), 95% growth inhibition
[14] = VIM-1 IC50, fluorescence assay with CCF2-FA substrate
[15] = VIM-1 enzyme, CCF2-FA substrate, read-out: VIM-1 IC50
[16] = IMP-1 enzyme, CCF2-FA fluorescence assay
[17] = NDM-1 enzyme, CCF2-FA fluorescence assay
[18] = VIM-1 enzyme, CCF2-FA fluorescence assay, read-out: VIM-1 IC50
[19] = Escherichia coli expressing NDM-1 (CLB30016), 95% growth inhibition
[20] = Serratia marcescens expressing IMP-1 (CL5741), 95% growth inhibition
[21] = Klebsiella pneumoniae expressing VIM-1 (IHMA599644), 95% growth inhibition

NDM-1, sequence (C7C422 whole entry, looked up, species assumed): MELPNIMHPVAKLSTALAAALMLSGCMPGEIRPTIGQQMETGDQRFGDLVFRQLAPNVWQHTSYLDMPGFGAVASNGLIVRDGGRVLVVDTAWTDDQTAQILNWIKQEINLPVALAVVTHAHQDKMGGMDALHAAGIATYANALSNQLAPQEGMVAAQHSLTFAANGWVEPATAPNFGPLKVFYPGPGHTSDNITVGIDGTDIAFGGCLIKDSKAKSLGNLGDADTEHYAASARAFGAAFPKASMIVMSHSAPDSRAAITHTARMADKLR
IMP-1, sequence (P52699 whole entry, looked up): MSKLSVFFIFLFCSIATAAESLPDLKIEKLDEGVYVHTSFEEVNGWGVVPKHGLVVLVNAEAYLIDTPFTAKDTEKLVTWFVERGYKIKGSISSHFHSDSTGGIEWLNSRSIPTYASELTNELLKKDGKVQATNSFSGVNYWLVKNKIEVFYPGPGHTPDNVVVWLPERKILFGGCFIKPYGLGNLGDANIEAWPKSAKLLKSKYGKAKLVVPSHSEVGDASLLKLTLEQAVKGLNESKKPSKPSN

## NCCC1CCC(N2CCC(c3ccc(-c4ccc(C(F)(F)F)c(S(N)(=O)=O)c4-c4nnn[nH]4)cc3)CC2)CC1 (stereo not drawn) [Example 792, 4′-{1-[4-(2-aminoethyl)cyclohexyl]piperidin-4-yl}-2-(1H-tetrazol-5-yl)-4-(trifluoromethyl)biphenyl-3-sulfonamide]
IMP-1; [4]
  IC50: 1.55 nM
NDM-1; [4]
  IC50: 7.31 nM
VIM-1; [5]
  IC50: 4.38 nM
[1]; [6]
  Escherichia coli MITC95: 3.125 µM
[2]; [7]
  Serratia marcescens MITC95: 3.125 µM
[3]; [8]
  Klebsiella pneumoniae MITC95: 25 µM

## CN(CCCCN)c1nc2c(-c3cccc(S(N)(=O)=O)c3-c3nnn[nH]3)cccc2s1 [Example 645, 3-[2-[4-aminobutyl(methyl)amino]-1,3-benzothiazol-4-yl]-2-(1H-tetrazol-5-yl)benzenesulfonamide]
IMP-1; [9]
  IC50: 88.8 nM
NDM-1; [10]
  IC50: 1.16 nM
VIM-1; VIM-1 IC50, VIM-1 enzyme, CCF2-FA substrate
  IC50: 5.29 nM
[1]; [11]
  Escherichia coli MITC95: 1.563 µM
[2]; [12]
  Serratia marcescens MITC95: 100 µM
[3]; [13]
  Klebsiella pneumoniae MITC95: 50 µM

## CC(C)(C)c1cccc(S(N)(=O)=O)c1-c1nnn[nH]1 [Example 161, 3-(tert-butyl)-2-(1H-tetrazol-5-yl)benzenesulfonamide]
IMP-1; [4]
  IC50: 306 nM
NDM-1; [4]
  IC50: 20.1 nM
VIM-1; [14]
  IC50: 874 nM
[1]
  Escherichia coli expressing NDM-1 (CLB 30016) MITC95: 1.563 µM
[2]
  Serratia marcescens expressing IMP-1 (CL5741) MITC95: 6.25 µM
[3]
  Klebsiella pneumoniae expressing VIM-1 (IHMA 599644) MITC95: 150 µM

## CC1(O)CCCN(c2ccc(C(F)(F)F)c(S(N)(=O)=O)c2-c2nnn[nH]2)C1 (stereo not drawn) [Example 654, 3-(3-hydroxy-3-methylpiperidin-1-yl)-2-(1H-tetrazol-5-yl)-6-(trifluoromethyl)benzenesulfonamide]
IMP-1; [9]
  IC50: 19.6 nM
NDM-1; [10]
  IC50: 6.85 nM
VIM-1; [15]
  IC50: 1.23 nM
[1]; [11]
  Escherichia coli MITC95: 4.688 µM
[2]; [12]
  Serratia marcescens MITC95: 1.172 µM
[3]; [13]
  Klebsiella pneumoniae MITC95: 9.375 µM

## Nc1nccc(-c2cccc(-c3ccc(C(F)(F)F)c(S(N)(=O)=O)c3-c3nnn[nH]3)c2)n1 [Example 753, 3′-(2-aminopyrimidin-4-yl)-2-(1H-tetrazol-5-yl)-4-(trifluoromethyl)biphenyl-3-sulfonamdie]
IMP-1; [4]
  IC50: 2.02 nM
NDM-1; [4]
  IC50: 1.01 nM
VIM-1; [5]
  IC50: 0.754 nM
[1]; [6]
  Escherichia coli MITC95: 12.5 µM
[2]; [7]
  Serratia marcescens MITC95: 12.5 µM
[3]; [8]
  Klebsiella pneumoniae MITC95: 100 µM

## NCC1CCC(N2CCC(c3ccc(-c4ccc(C(F)(F)F)c(S(N)(=O)=O)c4-c4nnn[nH]4)cc3)CC2)CC1 (stereo not drawn) [Example 787, 4′-{1-[4-(aminomethyl)cyclohexyl]piperidin-4-yl}-2-(1H-tetrazol-5-yl)-4-(trifluoromethyl)biphenyl-3-sulfonamide]
IMP-1; [4]
  IC50: 1.71 nM
NDM-1; [4]
  IC50: 7.09 nM
VIM-1; [5]
  IC50: 8.1 nM
[1]; [6]
  Escherichia coli MITC95: 1.563 µM
[2]; [7]
  Serratia marcescens MITC95: 3.125 µM
[3]; [8]
  Klebsiella pneumoniae MITC95: 25 µM

## Cc1cccc(Cc2cccc(S(N)(=O)=O)c2-c2nnn[nH]2)c1 [Example 158, 3-(3-methylbenzyl)-2-(1H-tetrazol-5-yl)benzenesulfonamide]
IMP-1; [4]
  IC50: 387 nM
NDM-1; [4]
  IC50: 16 nM
VIM-1; [14]
  IC50: 352 nM
[1]
  Escherichia coli expressing NDM-1 (CLB 30016) MITC95: 3.125 µM
[2]
  Serratia marcescens expressing IMP-1 (CL5741) MITC95: 12.5 µM
[3]
  Klebsiella pneumoniae expressing VIM-1 (IHMA 599644) MITC95: 200 µM

## NS(=O)(=O)c1nccc(N2CCC(Cc3ccncc3)CC2)c1-c1nnn[nH]1 [Example 238, 4-[4-(pyridin-4-ylmethyl)piperidin-1-yl]-3-(1H-tetrazol-5-yl)pyridine-2-sulfonamide]
IMP-1; [4]
  IC50: 188 nM
NDM-1; [4]
  IC50: 30.8 nM
VIM-1; [14]
  IC50: 96.9 nM
[1]
  Escherichia coli expressing NDM-1 (CLB 30016) MITC95: 3.125 µM
[2]
  Serratia marcescens expressing IMP-1 (CL5741) MITC95: 9.375 µM
[3]
  Klebsiella pneumoniae expressing VIM-1 (IHMA 599644) MITC95: 125 µM

## NS(=O)(=O)c1c(C(F)(F)F)ccc(-c2cnc3ccoc3c2)c1-c1nnn[nH]1 [Example 711, 3-furo[3,2-b]pyridin-6-yl-2-(1H-tetrazol-5-yl)-6-(trifluoromethyl)benzenesulfon-amide]
IMP-1; [9]
  IC50: 3.54 nM
NDM-1; [10]
  IC50: 1.01 nM
VIM-1; [15]
  IC50: 0.224 nM
[1]; [11]
  Escherichia coli MITC95: 6.25 µM
[2]; [12]
  Serratia marcescens MITC95: 12.5 µM
[3]; [13]
  Klebsiella pneumoniae MITC95: 6.25 µM

## Nc1nc2cc(-c3ccc(CC4CNC4)c(S(N)(=O)=O)c3-c3nn[nH]n3)ccc2[nH]1 [Example 611, 3-(2-amino-3H-benzo[d]imidazol-5-yl)-6-(azetidin-3-ylmethyl)-2-(2H-tetrazol-5-yl)benzenesulfonamide]
IMP-1; [9]
  IC50: 344 nM
NDM-1; [10]
  IC50: 17.7 nM
VIM-1; [15]
  IC50: 20.1 nM
[1]; [11]
  Escherichia coli MITC95: 0.3906 µM
[2]; [12]
  Serratia marcescens MITC95: 12.5 µM
[3]; [13]
  Klebsiella pneumoniae MITC95: 1.563 µM

## Nc1ccnc2cc(-c3ccc(C(F)(F)F)c(S(N)(=O)=O)c3-c3nnn[nH]3)ccc12 [Example 478, 3-(4-amino-7-quinolyl)-2-(1-tetrazol-5-yl)-6-(trifluoromethyl)benzenesulfonamide]
IMP-1; [16]
  IC50: 88.1 nM
NDM-1; [17]
  IC50: 24.6 nM
VIM-1; [18]
  IC50: 0.639 nM
[1]; [19]
  Escherichia coli MITC95: 0.7813 µM
[2]; [20]
  Serratia marcescens MITC95: 2.344 µM
[3]; [21]
  Klebsiella pneumoniae MITC95: 0.7813 µM

## NS(=O)(=O)c1c(C(F)(F)F)ccc(-c2ccc(C3CCN(C[C@@H]4CNCCO4)CC3)cc2)c1-c1nnn[nH]1 [Example 678, 4′-{1-[(2S)-morpholin-2-ylmethyl]piperidin-4-yl}-2-(1H-tetrazol-5-yl)-4-(trifluoromethyl)biphenyl-3-sulfonamide]
IMP-1; [9]
  IC50: 5 nM
NDM-1; [10]
  IC50: 15.3 nM
VIM-1; [15]
  IC50: 20.7 nM
[1]; [11]
  Escherichia coli MITC95: 9.375 µM
[2]; [12]
  Serratia marcescens MITC95: 6.25 µM
[3]; [13]
  Klebsiella pneumoniae MITC95: 150 µM

## NS(=O)(=O)c1c(C(F)(F)F)ccc(-c2ccc(C3CCN(C4CNC4)CC3)cc2)c1-c1nnn[nH]1 [Example 796, 4′-(1-azetidin-3-ylpiperidin-4-yl)-2-(1H-tetrazol-5-yl)-4-(trifluoromethyl)biphenyl-3-sulfonamide]
IMP-1; [4]
  IC50: 0.345 nM
NDM-1; [4]
  IC50: 2.06 nM
VIM-1; [14]
  IC50: 18 nM
[1]; [6]
  Escherichia coli MITC95: 6.25 µM
[2]; [7]
  Serratia marcescens MITC95: 6.25 µM
[3]; [8]
  Klebsiella pneumoniae MITC95: >200 µM

## CCn1c(N)nc2cc(-c3ccc(C(F)(F)F)c(S(N)(=O)=O)c3-c3nnn[nH]3)ccc21 [Example 752, 3-(2-amino-1-ethyl-1H-benzimidazol-5-yl)-2-(1H-tetrazol-5-yl)-6-(trifluoromethyl)benzenesulfon-amide]
IMP-1; [4]
  IC50: 6.25 nM
NDM-1; [4]
  IC50: 2.33 nM
VIM-1; [5]
  IC50: 0.677 nM
[1]; [6]
  Escherichia coli MITC95: 1.563 µM
[2]; [7]
  Serratia marcescens MITC95: 12.5 µM
[3]; [8]
  Klebsiella pneumoniae MITC95: 25 µM

## NC1CCC(c2cccc(S(N)(=O)=O)c2-c2nn[nH]n2)CC1 (stereo not drawn) [Example 168, 3-(4-Aminocyclohexyl)-2-(2H-tetrazol-5-yl)benzenesulfonamide]
IMP-1; [4]
  IC50: 865 nM
NDM-1; [4]
  IC50: 39.4 nM
VIM-1; [5]
  IC50: 50.3 nM
[1]
  Escherichia coli expressing NDM-1 (CLB 30016) MITC95: 0.25 µM
[2]
  Serratia marcescens expressing IMP-1 (CL5741) MITC95: 6.25 µM
[3]
  Klebsiella pneumoniae expressing VIM-1 (IHMA 599644) MITC95: 2.172 µM

## Nc1ccnc2ccc(-c3ccc(C(F)(F)F)c(S(N)(=O)=O)c3-c3nnn[nH]3)cc12 [Example 479, 3-(4-amino-6-quinolyl)-2-(1H-tetrazol-5-yl)-6-(trifluoromethyl)benzenesulfonamide]
IMP-1; [16]
  IC50: 30.3 nM
NDM-1; [17]
  IC50: 6.66 nM
VIM-1; [18]
  IC50: 0.373 nM
[1]; [19]
  Escherichia coli MITC95: 0.3906 µM
[2]; [20]
  Serratia marcescens MITC95: 1.563 µM
[3]; [21]
  Klebsiella pneumoniae MITC95: 0.7813 µM

## Nc1nc2c(F)cc(-c3ccc(C(F)(F)F)c(S(N)(=O)=O)c3-c3nnn[nH]3)cc2s1 [Example 743, 3-(2-amino-4-fluoro-1,3-benzothiazol-6-yl)-2-(1H-tetrazol-5-yl)-6-(trifluoromethyl)benzenesulfon-amide]
IMP-1; [4]
  IC50: 0.901 nM
NDM-1; [4]
  IC50: 0.409 nM
VIM-1; [5]
  IC50: 0.147 nM
[1]; [6]
  Escherichia coli MITC95: 3.125 µM
[2]; [7]
  Serratia marcescens MITC95: 6.25 µM
[3]; [8]
  Klebsiella pneumoniae MITC95: 6.25 µM

## CN1CCC(NCc2ccc(-c3cccc(S(N)(=O)=O)c3-c3nnn[nH]3)cc2)C1=O (stereo not drawn) [Example 349, 4′-{[(1-methyl-2-oxopyrrolidin-3-yl)amino]methyl}-2-(1H-tetrazol-5-yl)biphenyl-3-sulfonamide]
IMP-1; [16]
  IC50: 61.1 nM
NDM-1; [17]
  IC50: 4.32 nM
VIM-1; VIM-1 IC50, VIM-1 enzyme, CCF2-FA fluorescence assay
  IC50: 637 nM
[1]; [19]
  Escherichia coli MITC95: 6.25 µM
[2]; [20]
  Serratia marcescens MITC95: 2.344 µM
[3]; [21]
  Klebsiella pneumoniae MITC95: >200 µM
